Values of other authors in patent publication US5369112A, “Method of treating cataracts caused by active oxygen” (Mitsubishi Gas Chemical Company, Inc., priority 1991, dated 1994).

Experiments:
[1] = 109th meeting of Japan Pharmacological Society, 1989; cited from earlier work
kidney = conditions: Watanabe et al, Hiroshima J. Med. Sci.; cited from earlier work
[2] = system: liver diseases caused by carbon tetrachloride, endotoxin shock and cataracts caused by hydrocortisone; conditions: Watanabe 1988; Matsumoto 1989; Nishigoori 1989; cited from earlier work

O=C(O)c1cc(C(=O)O)c2c(n1)C(=O)C(=O)c1cc(C(=O)O)[nH]c1-2 [PQQ, pyrrolo quinoline quinone]
active oxygen scavenging action [1]: strong active oxygen scavenging action
kidney toxicity (kidney): has kidney toxicity
inhibition of diseases [2]: inhibits liver diseases caused by carbon tetrachloride, endotoxin shock and cataracts caused by hydrocortisone
